Test results: patent US20050238589A1, “Methods and compositions for preventing or treating periodontal diseases” (priority 2004, published 2005)

Experiments:
[1] = test system: P. gingivalis and ligature-induced experimental periodontitis; experiment: Histological analysis (HE) in rabbit experimental periodontitis; assay type: in vivo, New Zealand White rabbits; settings: topical application; rabbits with P. gingivalis and ligature placement
[2] = test system: P. gingivalis and ligature-induced experimental periodontitis; experiment: Morphometric analysis of mandibles in rabbit experimental periodontitis; assay type: in vivo, New Zealand White rabbits; settings: topical resolvin E1 before P. gingivalis application, every other day for 6 weeks; versus vehicle (ethanol)
[3] = test system: P. gingivalis and ligature-induced experimental periodontitis; experiment: Radiographic analysis (Bjorn technique) in rabbit experimental periodontitis; assay type: in vivo, New Zealand White rabbits
[4] = test system: PGE2 generation from gingival homogenates; settings: ElAttar et al. 1984; cited from earlier work
[5] = test system: COX-derived eicosanoids in crevicular fluid; settings: cited from earlier work
CF-PGE2 levels = settings: in humans; cited from earlier work
[6] = p<0.05 for vehicle group compared to resolvin E1 or ligature alone

With CC[C@@H](O)/C=C/C=C\C[C@@H](O)/C=C/C=C/C=C\[C@@H](O)CCCC(=O)O [resolvin E1] the “bone loss, histology (FIG. 6)” value [1] was “prevented”, the “inflammatory changes, histology (FIG. 6)” value [1] was “prevented” and the “bone destruction (defleshed bone specimens, FIG. 1)” value [2] was “prevented”. For the same molecule, the “gingival inflammation (gingival tissue of mandibles, FIG. 1)” value [2] was “prevented”, the “percentage of bone loss calculated by the Bjorn technique (FIG. 5)” value [3, 6] was “prevents the destructive effects” and the “percentage of tooth in bone measured on radiographs (FIG. 4)” value [3, 6] was “maintenance of bone levels”. The “bone loss, radiographic appearance of alveolar bone (FIG. 3)” value ([3]; topical application, bone at the same level as ligature alone) was “prevented the bone loss”.

In the case of CC(C(=O)O)c1ccc(-c2ccccc2)c(F)c1 (centres unmarked) [flurbiprofen], the “PGE2 generation from gingival homogenates” value [4] is listed as “significantly inhibited”, the “CF-PGE2 levels, gingival inflammation, tooth attachment loss and bone loss” value ([5]; Pauletto et al. 1997, in some cases bone gain) is listed as “reduced” and the “COX-derived eicosanoids in crevicular fluid (CF)” value ([5]; animals taking flurbiprofen) is listed as “decreased”. For the same molecule, the CF-PGE2 levels (CF-PGE2 levels) was “dramatically decreased”.
